Test systems include CAKI-1 renal; K-562 leukemia; KM12 colon; M14 melanoma; NCI-H226 lung; OVCAR-3 ovarian; SR leukemia; 786-0 renal; PC-3 prostate; BT-549 breast.
Common to all, as to assay: NCI-60 cell line screen, 48 h

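Growth conditions: 96-well plates. Treatment: test compound, 48 hours, 5 concentrations. Analysis: linear interpolation between bracketing concentrations; unreached endpoints set to highest concentration. TGI: concentration producing complete growth inhibition.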 Where only a bound is given, the exact number is not on record here.

Consider `Cc1cc2n([O-])cccc-2[n+](=O)c1`, for which the TGI in the assay with CAKI-1 renal, in the assay on K-562 leukemia, in the assay on KM12 colon, in the assay on M14 melanoma, in the assay on NCI-H226 lung and in the assay with OVCAR-3 ovarian was greater than 100 µM each time. Moreover, the TGI in the assay with SR leukemia was greater than 100 µM.

On to `COC(=O)CC(NC(=O)OCc1ccccc1)C(C(=O)OCc1ccccc1)C1(C)OCCO1` (stereo unspecified), for which the TGI with 786-0 renal is greater than 100 µM; in the assay with K-562 leukemia it was greater than 100 µM; in the assay on M14 melanoma, greater than 100 µM; in the assay on NCI-H226 lung, 94.1 µM; in the assay with OVCAR-3 ovarian it was greater than 100 µM; in the assay with SR leukemia, 58.2 µM.

For `CC1(C)COC(c2c(-c3ccccc3)noc2CS(=O)c2ccccc2)=N1` (stereo unspecified), the TGI in the assay on 786-0 renal, in the assay on CAKI-1 renal, in the assay on K-562 leukemia, with KM12 colon, in the assay on M14 melanoma and in the assay with NCI-H226 lung was greater than 100 µM throughout. For the same molecule, the TGI with OVCAR-3 ovarian and with SR leukemia was greater than 100 µM in each case.

Take `OC12CCCCCC1(N1CCOCC1)c1ccccc12` (stereo unspecified): the TGI in the assay on 786-0 renal, in the assay with CAKI-1 renal, in the assay with K-562 leukemia, in the assay with KM12 colon, with M14 melanoma and with NCI-H226 lung was greater than 100 µM each time. Moreover, the TGI with OVCAR-3 ovarian is greater than 100 µM.

With `COc1ccc(C2=C(OC(=O)N(C)C)c3cccn3-c3cc(Cl)ccc3S2)cc1`, the TGI with 786-0 renal, in the assay on CAKI-1 renal, in the assay with K-562 leukemia, in the assay on KM12 colon, in the assay with M14 melanoma and in the assay on PC-3 prostate was greater than 10 µM in each case. The molecule also had a TGI with SR leukemia greater than 10 µM.

Regarding `COc1cc2cc(C(=O)N3CC(CCl)c4c3cc([N+](C)(C)Cc3ccc([N+](=O)[O-])n3C)c3ccccc43)[nH]c2c(OC)c1OC` (stereo unspecified), the TGI was 11.5 µM in the assay with BT-549 breast; greater than 19.9 µM in the assay with CAKI-1 renal; greater than 100 µM in the assay on K-562 leukemia; greater than 23.8 µM in the assay on KM12 colon; greater than 48 µM in the assay on M14 melanoma; greater than 100 µM in the assay on OVCAR-3 ovarian. In the assay on SR leukemia, the TGI worked out at 2.29 µM.

Turning to `CC(c1ccccc1)N1CC(C)(c2ccccc2)N(O)C(c2ccccc2)C1C` (stereo unspecified), the TGI in the assay on 786-0 renal was 30.2 µM; in the assay with K-562 leukemia, greater than 100 µM; with KM12 colon it was greater than 100 µM; in the assay with OVCAR-3 ovarian, 40.8 µM.

For the molecule `N#CCCC1(CCC#N)CCCCCCC(CCC#N)(CCC#N)C(O)C1O` (stereo unspecified), the TGI in the assay with 786-0 renal, in the assay with CAKI-1 renal, in the assay with K-562 leukemia, in the assay on KM12 colon, in the assay on M14 melanoma and in the assay on NCI-H226 lung was greater than 100 µM in each case. Also, the TGI with OVCAR-3 ovarian, with PC-3 prostate and in the assay on SR leukemia was greater than 100 µM each time.

In the case of `NC(=S)N/N=C\CC(O)(C(F)(F)F)C(F)(F)F`, the TGI in the assay with 786-0 renal, in the assay with CAKI-1 renal, in the assay on K-562 leukemia, with KM12 colon, with M14 melanoma and with NCI-H226 lung was greater than 10 µM each time. Moreover, the TGI in the assay on OVCAR-3 ovarian, in the assay on PC-3 prostate and with SR leukemia was greater than 10 µM each time.

Take `O=c1c2c(nc3n1CCC3)sc1c(O)c(Br)ccc12`: the TGI with 786-0 renal is 37.4 µM; in the assay with CAKI-1 renal, greater than 100 µM; in the assay on K-562 leukemia, 59.2 µM; in the assay on KM12 colon, 29.7 µM; in the assay on M14 melanoma, greater than 100 µM; in the assay on NCI-H226 lung, 73.2 µM. Moreover, the figures for the TGI in the assay on OVCAR-3 ovarian and in the assay with SR leukemia were 36.7 µM and 54 µM, respectively.

For `Cc1cc2occ(-c3ccc(Cl)cc3)c2c(=O)o1`, the TGI in the assay with 786-0 renal, in the assay with CAKI-1 renal, in the assay on K-562 leukemia, in the assay on KM12 colon, in the assay on M14 melanoma and with NCI-H226 lung was greater than 100 µM in each case. Besides, the TGI in the assay on OVCAR-3 ovarian and in the assay with SR leukemia was greater than 100 µM in each case.

In the case of `Cc1cc(=O)[nH]c(NNC(C#N)c2ccc([N+](=O)[O-])cc2)n1` (stereo unspecified), the TGI in the assay with 786-0 renal, in the assay with CAKI-1 renal, in the assay with K-562 leukemia, in the assay with KM12 colon, in the assay on M14 melanoma and in the assay on NCI-H226 lung was greater than 100 µM throughout. Also, the TGI with OVCAR-3 ovarian and in the assay on SR leukemia was greater than 100 µM throughout.

With `Cc1cc([N+](=O)[O-])c(S(=O)(=O)c2ccccc2)c([N+](=O)[O-])c1`, the TGI was 12.3 µM in the assay with 786-0 renal; 10.3 µM in the assay with CAKI-1 renal; greater than 100 µM with K-562 leukemia; 32.1 µM with KM12 colon; 17.6 µM in the assay on M14 melanoma; 41.9 µM with NCI-H226 lung. The TGI in the assay on OVCAR-3 ovarian was 11.4 µM; with SR leukemia it was greater than 100 µM.

`CC(=O)c1ccc(NC(=O)CSc2nc(C)nc3c2sc(=S)n3-c2ccccc2)cc1`: the TGI with 786-0 renal was greater than 3.16 µM; with CAKI-1 renal, greater than 3.16 µM; in the assay on K-562 leukemia, greater than 10 µM; in the assay with KM12 colon, greater than 3.16 µM; in the assay on M14 melanoma, greater than 3.16 µM; in the assay on NCI-H226 lung, greater than 3.16 µM. For the same molecule, the TGI with OVCAR-3 ovarian and in the assay on SR leukemia was greater than 3.16 µM each time.

`CCN(CC)CCCCC1CCN(CC(=O)N2c3ccccc3NC(=O)CC2C)CC1` (stereo unspecified): the TGI in the assay on 786-0 renal, with CAKI-1 renal, in the assay on K-562 leukemia, in the assay with KM12 colon, in the assay with M14 melanoma and in the assay on NCI-H226 lung was greater than 100 µM in each case. The TGI in the assay with OVCAR-3 ovarian and in the assay on SR leukemia was greater than 100 µM in each case.

Regarding `O=C(CSc1nc2ccc(I)cc2c(=O)n1Cc1ccccc1)NN1C(=O)CCC1=O`, the TGI in the assay on 786-0 renal was greater than 100 µM; with CAKI-1 renal, 6.91 µM; in the assay with K-562 leukemia, greater than 100 µM; in the assay with KM12 colon, greater than 100 µM; in the assay on M14 melanoma, greater than 100 µM; in the assay with NCI-H226 lung, 84.6 µM. Besides, the TGI was 70.6 µM in the assay with OVCAR-3 ovarian, greater than 100 µM in the assay with PC-3 prostate and greater than 100 µM in the assay with SR leukemia.
